The experiment concerns male Sprague-Dawley rats. Description: cavernous nerve crush injury rat model: erectile function (ICP, ICP/MAP) on cavernosal nerve stimulation. The format is in vivo. The protocol:
Experiments were conducted in male Sprague-Dawley rats according to previously published methods for forceps-induced nerve crush injury and erectile function measurements (Rehman, J., et al., Urology 51:640-644, 1998; Sezen, S. F., et al., Int J. Impot. Res. 14:506-12, 2002). Subjects were anesthetized with Phenobarbital. The prostate of the subjects was exposed and the cavernosal nerve was clipped on either side with a forceps to induce mechanical injury (crush). This rat model mimics the nerve injury that develops during human male prostatectomy, leading to nerve injury and subsequent erectile dysfunction. Subjects were studied 2 weeks after the injury. Two groups of subjects were used, one group treated with vehicle and one group treated with compound 8l methanesulfonate salt. Compound 8l methanesulfonate salt was injected at 30 mg/kg i.v. immediately before the crush injury, and on the following day at the same dose. Thereafter, for 12 days, subjects were treated with 60 mg/kg compound 8l methanesulfonate salt intraperitoneally. At 2 weeks, subjects were re-anesthetized and measured for mean arterial blood pressure (MAP) and intracavernosal pressure (ICP). Cavernosal nerve stimulation was conducted at 5 and 7.5 V using a square pulse stimulator for 30 msec. ICP was determined as the area under curve (mmHg×sec). In addition, IPC/MAP ratios were determined.

Structures can show the parent of a compound that is named as a salt.

Consider `O=c1[nH]c2c(c3ccccc13)Cc1cc(S(=O)(=O)NCCCN3CCOCC3)ccc1-2` [Compound 8l methanesulfonate salt], for which the erectile function result (rat model that mimics the nerve injury that develops during human male prostatectomy, versus vehicle) was “improves erectile function”. Under “rats 2 weeks after cavernous nerve crush injury, 30 mg/kg i.v. immediately before injury and next day, then 60 mg/kg i.p. for 12 days, cavernosal nerve stimulation at 5 and 7.5 V, mean ± SEM, n = 14-16, *p < 0.05, vehicle 1124 ± 212, normal approx. 4000”, the “ICP (intracavernosal pressure, area under curve)” value is 1471 ± 151* mmHg × sec. In addition, the ICP/MAP ratio (rats 2 weeks after cavernous nerve crush injury, 30 mg/kg i.v. immediately before injury and next day, then 60 mg/kg i.p. for 12 days, mean ± SEM, n = 14-16, *p < 0.05, vehicle 0.16 ± 0.03, normal approx. 0.8-0.9) is 0.23 ± 0.02*.

(Values after patent publication US20060019980A1, “Methods for treating or preventing erectile dysfunction or urinary incontinence” (Inotek Pharmaceutical, Corp., priority 2004, published 2006).)
